Laboratory results: patent publication US20140005119A1, “COMPOSITIONS AND METHODS FOR INHIBITING THE ACTIVITY OF P110a MUTANT PROTEINS” (Case Western Reserve University, priority 2012, published 2014)

Assays:
[1] = test system: AKT phosphorylation; test: Immunoblot of AKT phosphorylation in cancer cell lines treated with stapled peptides; type: cell-based, human; set-up: AKT phosphorylation / AKT phosphorylation at both T308 and 5473 residues: dose or concentration left out as unconfirmed
Protocol: FIGS. 3(A-M) illustrate: (A, B) Mapping peptides (P3, SEQ ID NO: 1; P4 SEQ ID NO: 2; P5, SEQ ID NO: 3; P6, SEQ ID NO: 4) derived from mutant p110α that inhibit interaction between IRS1 and p110α E545K. The indicated peptides were added into cell lysates made from the p110α E545K 3×FLAG KI cells. Cell lysates were immunoprecipitated with beads conjugated with anti-FLAG antibodies and then blotted with anti-IRS1 antibodies. (C) Immunoblots of cell lysates made from the p110α E545K 3×FLAG KI cells. Cell lysates were immunoprecipitated with beads conjugated with anti-FLAG antibodies and then blotted with the indicated antibodies. (D) Immunoblots of cell lysate of Myc-tagged IRS1 plasmid, which co-transfected an ABD domain deletion construct of the FLAG-tagged p110α E545K mutant (ΔABD), incubated with the indicated amount of stapled p110α mutant peptides, and then immunoprecipitated with anti-FLAG antibodies and blotted with the indicated antibodies. (J, K) Immunoblot and graph of purified recombinant p110α E545K mutant proteins mixed with the indicated components and quantified using an in vitro lipid kinase assay. (L, M) Immunoblots of the indicated cell lines serum-starved, stimulated with 1 μg/ml insulin for 30 min, and then treated with or without the indicated peptides. Cell lysates were blotted with the indicated antibodies. All error bars show mean±SEM. *p<0.05, **p<0.001, t test.
(§1) FIG. 4(A-F) illustrate: (A) Schematic diagram of linear and stapled WT and mutant peptides derived from p110α (SEQ ID NOs: 5, 6, 7 and 8). (B) Immunoblots of cell lysates immunoprecipitated with beads conjugated with anti-FLAG antibodies and then blotted with the indicated antibodies. Linear or stapled WT and mutant peptide were added into culture medium of the p110α E545K 3×FLAG KI cells for 16 hr. (C) Immunoblots of cell lysates immunoprecipitated with anti-p110α antibodies and then blotted with the indicated antibodies. Vaco481 CRC cells were treated with the stapled mutant peptides at the indicated concentration. (D) Immunoblots of cell lysates blotted with the indicated antibodies. The indicated cell lines were treated with the stapled mutant peptide. (E) Immunoblots of cell lysates blotted with the indicated antibodies. The indicated cancer cell lines were treated or untreated with stapled WT or mutant peptide at 50 mM for 2 hr. (F) Immunoblots of cell lysates were blotted with the indicated antibodies. The indicated cancer cell lines were treated with or without 50 mM of stapled mutant peptide for 2 hr.
Colorectal cancer (CRC) cell lines DLD1, HCT116, Vaco481 and genetically engineered CRC cell lines were maintained in McCoy's 5A medium containing 10% fetal bovine serum (FBS). Lung cancer cell line H460 and breast cancer cell line T47D were cultured in RPMI 1640 medium plus 10% of FBS. Breast cancer cell line MDA-MB361 was maintained in Leibovitz's L-15 medium with 20% FBS. Human embryonic kidney HEK293 cells were cultured in DMEM medium containing 10% FBS. Mammalian cells were transfected with Lipofectamine in accordance with the manufacturer's instructions (Invitrogen).
For Co-immunoprecipitation (Co-IP), cells were harvested, washed with PBS, and then lysed in IP buffer (50 mMTris [pH 7.4], 150 mMNaCl, 5 mMEDTA [pH 8.0], 0.5% NP40, 1 mM PMSF, complete Protease Inhibitor Cocktail tablet [Roche]; supplemented with phosphatase inhibitors [1 mM Na3VO4, 20 mM NaF, 0.1 mM b-glycerophosphate, 20 mM sodium pyrophosphate] when necessary). For immunoblotting (IB) of phospho-specific proteins, unless stated otherwise, cells were lysed in urea buffer (100 mM NaH2PO4, 10 mM Tris-HCl, 8 M Urea, 1 mM Na3VO4, 20 mM NaF, 0.1 mM β-glycerophosphate, 20 mM sodium pyrophosphate, supplemented with complete Protease Inhibitor Cocktail tablet [Roche], pH 8.0). Lysates were then cleared by centrifugation (14,000 rpm, 10 min) and protein concentration in supernatants was determined with a BCA protein assay kit (Pierce, Rockford, Ill.). […]

[2] = test system: IRS1 phosphorylation; test: Immunoblot of treated cells, IRS1 phosphorylation; type: cell-based, human
Protocol: as §1, with “The indicated cancer cell lines were treated or untreated with stapled WT or mutant peptide at 50 mM for 2 hr. (F) Immunoblots of cell lysates were blotted with the indicated antibodies. The indicated cancer cell lines were treated with or without 50 mM of stapled mutant peptide for 2 hr.” left out
(§2) For Co-immunoprecipitation (Co-IP), cells were harvested, washed with PBS, and then lysed in IP buffer (50 mMTris [pH 7.4], 150 mMNaCl, 5 mMEDTA [pH 8.0], 0.5% NP40, 1 mM PMSF, complete Protease Inhibitor Cocktail tablet [Roche]; supplemented with phosphatase inhibitors [1 mM Na3VO4, 20 mM NaF, 0.1 mM b-glycerophosphate, 20 mM sodium pyrophosphate] when necessary). […] Lysates were then cleared by centrifugation (14,000 rpm, 10 min) and protein concentration in supernatants was determined with a BCA protein assay kit (Pierce, Rockford, Ill.). […]

[3] = test system: p85 and IRS1; test: Immunoblot of treated cell lines, p85 and IRS1 levels; type: cell-based, human
Protocol: as §1, with “The indicated cancer cell lines were treated or untreated with stapled WT or mutant peptide at 50 mM for 2 hr. (F) Immunoblots of cell lysates were blotted with the indicated antibodies. The indicated cancer cell lines were treated with or without 50 mM of stapled mutant peptide for 2 hr.” left out
as §2

[4] = target: T1, cellular p110α-p85 interaction (Homo sapiens, UniProt P42336, E545K); test: Co-IP from treated cells, cellular p110α-p85 interaction; type: cell-based
T1 construct: tag the endogenous WT or mutant p110α with 3×FLAG at their C termini in DLD1 cells; endogenous in cells; host or cells: DLD1 p110α E545K 3×FLAG knock-in cells
Protocol: as §1, with “The indicated cancer cell lines were treated or untreated with stapled WT or mutant peptide at 50 mM for 2 hr. (F) Immunoblots of cell lysates were blotted with the indicated antibodies. The indicated cancer cell lines were treated with or without 50 mM of stapled mutant peptide for 2 hr.” left out
as §2

[5] = target: T2, p110α-p85 interaction (Homo sapiens, UniProt P42336, E545K); test: Peptide competition assay in cell lysates, p110α-p85 interaction; type: binding
T2 construct: tag the endogenous WT or mutant p110α with 3×FLAG at their C termini in DLD1 cells; endogenous in cells; host or cells: DLD1 p110α E545K 3×FLAG knock-in cells
Protocol: FIGS. 3(A-M) illustrate: (A, B) Mapping peptides (P3, SEQ ID NO: 1; P4 SEQ ID NO: 2; P5, SEQ ID NO: 3; P6, SEQ ID NO: 4) derived from mutant p110α that inhibit interaction between IRS1 and p110α E545K. The indicated peptides were added into cell lysates made from the p110α E545K 3×FLAG KI cells. Cell lysates were immunoprecipitated with beads conjugated with anti-FLAG antibodies and then blotted with anti-IRS1 antibodies. (C) Immunoblots of cell lysates made from the p110α E545K 3×FLAG KI cells. Cell lysates were immunoprecipitated with beads conjugated with anti-FLAG antibodies and then blotted with the indicated antibodies. […] (J, K) Immunoblot and graph of purified recombinant p110α E545K mutant proteins mixed with the indicated components and quantified using an in vitro lipid kinase assay. […]
as §2

T1 sequence (P42336 whole entry E545K): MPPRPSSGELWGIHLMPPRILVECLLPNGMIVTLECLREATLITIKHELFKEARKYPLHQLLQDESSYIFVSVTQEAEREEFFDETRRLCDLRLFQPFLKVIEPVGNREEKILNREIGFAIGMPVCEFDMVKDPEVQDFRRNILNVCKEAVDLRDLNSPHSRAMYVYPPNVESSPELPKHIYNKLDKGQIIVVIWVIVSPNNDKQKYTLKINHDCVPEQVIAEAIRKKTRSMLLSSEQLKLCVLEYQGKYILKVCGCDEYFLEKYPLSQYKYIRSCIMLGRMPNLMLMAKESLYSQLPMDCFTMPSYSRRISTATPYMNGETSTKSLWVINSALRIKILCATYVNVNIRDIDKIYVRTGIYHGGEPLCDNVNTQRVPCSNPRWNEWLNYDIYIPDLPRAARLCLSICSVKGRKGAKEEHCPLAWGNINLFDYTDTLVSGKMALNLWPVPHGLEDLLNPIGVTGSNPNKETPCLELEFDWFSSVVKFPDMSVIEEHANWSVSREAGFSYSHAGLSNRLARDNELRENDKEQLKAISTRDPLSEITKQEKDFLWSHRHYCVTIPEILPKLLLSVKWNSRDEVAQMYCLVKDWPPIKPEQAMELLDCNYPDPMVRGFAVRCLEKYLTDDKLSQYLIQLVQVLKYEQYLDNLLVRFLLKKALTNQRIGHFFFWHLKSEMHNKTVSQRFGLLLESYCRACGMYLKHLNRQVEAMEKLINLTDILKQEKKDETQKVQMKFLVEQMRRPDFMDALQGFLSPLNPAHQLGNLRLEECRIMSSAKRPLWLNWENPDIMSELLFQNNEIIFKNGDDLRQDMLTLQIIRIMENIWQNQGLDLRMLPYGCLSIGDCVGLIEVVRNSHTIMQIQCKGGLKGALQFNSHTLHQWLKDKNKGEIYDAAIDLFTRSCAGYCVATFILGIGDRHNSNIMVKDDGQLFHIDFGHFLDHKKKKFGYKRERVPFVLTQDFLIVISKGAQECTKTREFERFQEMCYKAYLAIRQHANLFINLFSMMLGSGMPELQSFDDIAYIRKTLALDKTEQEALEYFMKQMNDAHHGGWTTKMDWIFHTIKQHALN
T1 sequence (P27986 whole entry partner): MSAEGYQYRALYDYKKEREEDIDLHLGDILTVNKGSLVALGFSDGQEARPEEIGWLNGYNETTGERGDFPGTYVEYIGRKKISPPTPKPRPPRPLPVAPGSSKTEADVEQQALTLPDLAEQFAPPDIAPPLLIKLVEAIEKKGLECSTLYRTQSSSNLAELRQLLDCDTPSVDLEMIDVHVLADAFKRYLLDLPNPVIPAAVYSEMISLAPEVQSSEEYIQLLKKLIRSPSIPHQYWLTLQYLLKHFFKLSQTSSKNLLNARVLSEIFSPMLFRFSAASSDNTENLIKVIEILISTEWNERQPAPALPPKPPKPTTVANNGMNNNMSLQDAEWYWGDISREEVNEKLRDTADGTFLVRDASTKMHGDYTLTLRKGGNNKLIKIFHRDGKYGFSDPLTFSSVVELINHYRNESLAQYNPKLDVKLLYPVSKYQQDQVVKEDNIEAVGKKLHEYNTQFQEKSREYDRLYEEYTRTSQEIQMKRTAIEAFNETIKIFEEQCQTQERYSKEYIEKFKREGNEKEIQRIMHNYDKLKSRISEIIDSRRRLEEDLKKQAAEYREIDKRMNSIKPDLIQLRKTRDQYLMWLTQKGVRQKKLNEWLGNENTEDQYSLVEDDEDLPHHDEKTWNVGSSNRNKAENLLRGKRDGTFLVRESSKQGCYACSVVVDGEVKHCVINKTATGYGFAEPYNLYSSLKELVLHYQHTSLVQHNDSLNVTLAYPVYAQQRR
T2 sequence (P42336 whole entry E545K): as the sequence (P42336 whole entry E545K) above
T2 sequence (P27986 whole entry partner): as the sequence (P27986 whole entry partner) above

cellular p110α-p85 interaction [4]: did not interfere
effect on p110α-p85 interaction [5]: no effects
Substance: H2N-SEITKQEK-D^549-FLW-S^553-HRHYC-COOH [stapled mutant peptide]
AKT phosphorylation at both T308 and 5473 residues ([1]; DLD1 cells harboring p110α E545K): reduced
AKT phosphorylation at both T308 and 5473 residues ([1]; H460 cells harboring p110α E545K): reduced
AKT phosphorylation ([1]; HCT116 cells harboring p110α H1047R): no effect
AKT phosphorylation at both T308 and 5473 residues ([1]; MDA-MB361 cells harboring p110α E545K): reduced
AKT phosphorylation ([1]; RKO cells harboring p110α H1047R): no effect
AKT phosphorylation ([1]; T47D cells harboring p110α H1047R): no effect
AKT phosphorylation at both T308 and 5473 residues ([1]; Vaco481 cell line harboring p110α Q546P): reduced
AKT phosphorylation ([1]; WT-only DLD1 cells): did not affect
AKT phosphorylation ([1]; mutant-only DLD1 cells): reduced
AKT phosphorylation when cell lines were stimulated by insulin ([1]; serum-starved, 1 μg/ml insulin for 30 min): no effect
AKT phosphorylation in cancer cells ([1]; summary statement on FIG. 4): reduced
IRS1 phosphorylation [2]: did not interfere
levels of p85 and IRS1 [3]: did not affect
